Where “and” joins values, the source holds several entries; their conditions need not be identical. Identical values can stand only once. Inconclusive results and toxic doses are left out.
Test system: P388 leukemia ip, CD2F1 mice, survival T/C
Assay: NCI In Vivo Anticancer Drug Screen. Data for tumor model P388 Leukemia (intraperitoneal) in CD2F1 (CDF1) mice
Conditions: endpoint: median survival time, higher = longer survival
Summary of the method: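 Mice carrying the transplanted tumor received test compound or vehicle. Survival was recorded in each group, and the value is the treated-group measurement divided by that of the vehicle-treated control group.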

[1] = dose: 50.0 mg/kg/injection, schedule: Q01DX009 (ip), vehicle: Klucel (hydroxypropylcellulose) (HPC)
[2] = dose: 100.0 mg/kg/injection, schedule: Q01DX009 (ip), vehicle: Klucel (hydroxypropylcellulose) (HPC)
[3] = dose: 200.0 mg/kg/injection, schedule: Q01DX009 (ip), vehicle: Klucel (hydroxypropylcellulose) (HPC)
[4] = dose: 100.0 mg/kg/injection, schedule: Q04DX002 (ip), vehicle: saline with Tween-80
[5] = dose: 200.0 mg/kg/injection, schedule: Q04DX002 (ip), vehicle: saline with Tween-80

What does the source list for `CC(C)CCCCCCCCCCCCC(=O)NCC(=O)NC1C(O)C(O)C(Nc2ncnc3nc[nH]c23)OC1C(O)CO` (stereo not drawn)?
T/C (dose: 0.06 mg/kg/injection, schedule: Q01DX009 (ip), vehicle: Klucel (hydroxypropylcellulose) (HPC)): 100 % of control; T/C (dose: 0.13 mg/kg/injection, schedule: Q01DX009 (ip), vehicle: Klucel (hydroxypropylcellulose) (HPC)): 100 % of control; T/C (dose: 0.25 mg/kg/injection, schedule: Q01DX009 (ip), vehicle: Klucel (hydroxypropylcellulose) (HPC)): 100 % of control; T/C (dose: 0.25 mg/kg/injection, schedule: Q01DX009 (ip), vehicle: distilled water + alcohol): 154 % of control; T/C (dose: 0.25 mg/kg/injection, schedule: Q01DX009 (ip), vehicle: saline with Tween-80): 158 % of control; T/C (dose: 0.25 mg/kg/injection, schedule: Q03HX008 (ip), vehicle: Klucel (hydroxypropylcellulose) (HPC)): 100 % of control; T/C (dose: 0.25 mg/kg/injection, schedule: Q03HX016 (ip), vehicle: Klucel (hydroxypropylcellulose) (HPC)): 100 % of control; T/C (dose: 0.25 mg/kg/injection, schedule: Q03HX024 (ip), vehicle: Klucel (hydroxypropylcellulose) (HPC)): 95 % of control; T/C (dose: 0.5 mg/kg/injection, schedule: Q01DX009 (ip), vehicle: Klucel (hydroxypropylcellulose) (HPC)): 100 % of control; T/C (dose: 0.5 mg/kg/injection, schedule: Q01DX009 (ip), vehicle: distilled water + Tween-80): 154 % of control; T/C (dose: 0.5 mg/kg/injection, schedule: Q01DX009 (ip), vehicle: saline with Tween-80): 151 % of control; T/C (dose: 0.5 mg/kg/injection, schedule: Q01DX009 (oral), vehicle: Klucel (hydroxypropylcellulose) (HPC)): 100 % of control; T/C (dose: 0.5 mg/kg/injection, schedule: Q03HX008 (ip), vehicle: Klucel (hydroxypropylcellulose) (HPC)): 100 % of control; T/C (dose: 0.5 mg/kg/injection, schedule: Q03HX016 (ip), vehicle: Klucel (hydroxypropylcellulose) (HPC)): 100 % of control; T/C (dose: 0.5 mg/kg/injection, schedule: Q03HX024 (ip), vehicle: Klucel (hydroxypropylcellulose) (HPC)): 90 % of control; T/C (dose: 1.0 mg/kg/injection, schedule: Q01DX009 (ip), vehicle: Klucel (hydroxypropylcellulose) (HPC)): 100 % of control; T/C (dose: 1.0 mg/kg/injection, schedule: Q01DX009 (ip), vehicle: distilled water + alcohol): 110 % of control; T/C (dose: 1.0 mg/kg/injection, schedule: Q01DX009 (ip), vehicle: saline with Tween-80): 101 % of control and 109 % of control; T/C (dose: 1.0 mg/kg/injection, schedule: Q01DX009 (oral), vehicle: Klucel (hydroxypropylcellulose) (HPC)): 100 % of control; T/C (dose: 1.0 mg/kg/injection, schedule: Q03HX008 (ip), vehicle: Klucel (hydroxypropylcellulose) (HPC)): 100 % of control; T/C (dose: 1.0 mg/kg/injection, schedule: Q03HX016 (ip), vehicle: Klucel (hydroxypropylcellulose) (HPC)): 100 % of control; T/C (dose: 1.0 mg/kg/injection, schedule: Q03HX024 (ip), vehicle: Klucel (hydroxypropylcellulose) (HPC)): 95 % of control; T/C (dose: 2.0 mg/kg/injection, schedule: Q01DX001 (ip), vehicle: Klucel (hydroxypropylcellulose) (HPC)): 100 % of control; T/C (dose: 2.0 mg/kg/injection, schedule: Q01DX009 (ip), vehicle: Klucel (hydroxypropylcellulose) (HPC)): 151 % of control; T/C (dose: 2.0 mg/kg/injection, schedule: Q01DX009 (ip), vehicle: saline with Tween-80): 89 % of control; T/C (dose: 2.0 mg/kg/injection, schedule: Q01DX009 (oral), vehicle: Klucel (hydroxypropylcellulose) (HPC)): 100 % of control; T/C (dose: 2.0 mg/kg/injection, schedule: Q03HX008 (ip), vehicle: Klucel (hydroxypropylcellulose) (HPC)): 100 % of control; T/C (dose: 2.0 mg/kg/injection, schedule: Q03HX016 (ip), vehicle: Klucel (hydroxypropylcellulose) (HPC)): 100 % of control; T/C (dose: 2.0 mg/kg/injection, schedule: Q03HX024 (ip), vehicle: Klucel (hydroxypropylcellulose) (HPC)): 95 % of control; T/C (dose: 2.0 mg/kg/injection, schedule: Q04DX003 (ip), vehicle: Klucel (hydroxypropylcellulose) (HPC)): 100 % of control; T/C (dose: 2.0 mg/kg/injection, schedule: Q08DX002 (ip), vehicle: Klucel (hydroxypropylcellulose) (HPC)): 100 % of control; T/C (dose: 4.0 mg/kg/injection, schedule: Q01DX001 (ip), vehicle: Klucel (hydroxypropylcellulose) (HPC)): 100 % of control; T/C (dose: 4.0 mg/kg/injection, schedule: Q01DX009 (oral), vehicle: Klucel (hydroxypropylcellulose) (HPC)): 100 % of control; T/C (dose: 4.0 mg/kg/injection, schedule: Q04DX003 (ip), vehicle: Klucel (hydroxypropylcellulose) (HPC)): 100 % of control; T/C (dose: 4.0 mg/kg/injection, schedule: Q08DX002 (ip), vehicle: Klucel (hydroxypropylcellulose) (HPC)): 100 % of control; T/C (dose: 8.0 mg/kg/injection, schedule: Q01DX001 (ip), vehicle: Klucel (hydroxypropylcellulose) (HPC)): 100 % of control; T/C (dose: 8.0 mg/kg/injection, schedule: Q04DX003 (ip), vehicle: Klucel (hydroxypropylcellulose) (HPC)): 100 % of control; T/C (dose: 8.0 mg/kg/injection, schedule: Q08DX002 (ip), vehicle: Klucel (hydroxypropylcellulose) (HPC)): 100 % of control; T/C (dose: 16.0 mg/kg/injection, schedule: Q01DX001 (ip), vehicle: Klucel (hydroxypropylcellulose) (HPC)): 100 % of control; T/C (dose: 16.0 mg/kg/injection, schedule: Q01DX001 (oral), vehicle: Klucel (hydroxypropylcellulose) (HPC)): 100 % of control; T/C (dose: 16.0 mg/kg/injection, schedule: Q04DX003 (ip), vehicle: Klucel (hydroxypropylcellulose) (HPC)): 100 % of control; T/C (dose: 16.0 mg/kg/injection, schedule: Q08DX002 (ip), vehicle: Klucel (hydroxypropylcellulose) (HPC)): 104 % of control; T/C (dose: 32.0 mg/kg/injection, schedule: Q01DX001 (oral), vehicle: Klucel (hydroxypropylcellulose) (HPC)): 100 % of control; T/C (dose: 64.0 mg/kg/injection, schedule: Q01DX001 (oral), vehicle: Klucel (hydroxypropylcellulose) (HPC)): 100 % of control; T/C (dose: 128.0 mg/kg/injection, schedule: Q01DX001 (oral), vehicle: Klucel (hydroxypropylcellulose) (HPC)): 100 % of control

For `O=C(Nc1ccc(Cl)cc1)Nc1nnc(COc2ccccc2)o1`, which T/C (dose: 15.0 mg/kg/injection, schedule: Q01DX005 (ip), vehicle: saline with Tween-80) is on record?
The T/C was 90 % of control.

And the T/C (dose: 30.0 mg/kg/injection, schedule: Q01DX005 (ip), vehicle: saline with Tween-80)?
Its T/C is 88 % of control.

What about the T/C (dose: 60.0 mg/kg/injection, schedule: Q01DX005 (ip), vehicle: saline with Tween-80) of the same compound?
The T/C was 89 % of control and 90 % of control.

And the T/C (dose: 120.0 mg/kg/injection, schedule: Q01DX005 (ip), vehicle: saline with Tween-80)?
Its T/C is 90 % of control.

And the T/C (dose: 240.0 mg/kg/injection, schedule: Q01DX005 (ip), vehicle: saline with Tween-80)?
Its T/C is 87 % of control.

`O=C(NCCNC(=S)Nc1ccccc1)C(=O)NCCNC(=S)Nc1ccccc1` was tested. Which T/C (dose: 50.0 mg/kg/injection, schedule: Q01DX001 (ip), vehicle: Klucel (hydroxypropylcellulose) (HPC)) did it give?
The T/C was 91 % of control.

And the T/C (dose: 100.0 mg/kg/injection, schedule: Q01DX001 (ip), vehicle: Klucel (hydroxypropylcellulose) (HPC))?
The T/C was 91 % of control.

And the T/C (dose: 200.0 mg/kg/injection, schedule: Q01DX001 (ip), vehicle: Klucel (hydroxypropylcellulose) (HPC))?
Its T/C is 91 % of control.

What does the source list for `CCCCCCCC(=O)Nc1ncc([N+](=O)[O-])s1`?
T/C [1]: 106 % of control; T/C [2]: 106 % of control; T/C [3]: 113 % of control

For `O=c1c2ccccc2nc(/C=N/NC(=S)Nc2ccc(Cl)cc2)n1-c1ccc(Br)cc1`, which T/C [4] is on record?
The T/C was 96 % of control.

What about the T/C [5] of the same compound?
The T/C was 88 % of control.

How did the T/C (dose: 8.25 mg/kg/injection, schedule: Q01DX009 (ip), vehicle: saline with Tween-80) turn out when `BrCCC[P+](c1ccccc1)(c1ccccc1)c1ccccc1` was run?
The T/C was 116 % of control.

And the T/C (dose: 12.5 mg/kg/injection, schedule: Q01DX009 (ip), vehicle: saline with Tween-80)?
Its T/C is 116 % of control.

Which T/C (dose: 25.0 mg/kg/injection, schedule: Q01DX009 (ip), vehicle: Klucel (hydroxypropylcellulose) (HPC)) does the source give for `C=C1C(=O)OC2C=C(CCC(C)=O)C(C)C(OC(C)=O)CC12` (stereo not drawn) here?
The T/C was 100 % of control.

What about the T/C [1] of the same compound?
The T/C was 102 % of control.

And the T/C [2]?
Its T/C is 94 % of control.

And the T/C [3]?
The T/C was 94 % of control.

Which T/C (dose: 6.25 mg/kg/injection, schedule: Q01DX005 (ip), vehicle: water) does the source give for `NC(CNC(=O)CBr)C(=O)O` (stereo not drawn) here?
Its T/C is 117 % of control and 118 % of control.

And the T/C (dose: 100.0 mg/kg/injection, schedule: Q01DX005 (ip), vehicle: water)?
The T/C was 152 % of control.

Which T/C [4] does the source give for `O=C1c2ccccc2C(=O)C1(Br)c1ccccc1` here?
The T/C was 99 % of control.

What about the T/C [5] of the same compound?
The T/C was 101 % of control.

How did the T/C (dose: 100.0 mg/kg/injection, schedule: Q04DX003 (ip), vehicle: saline with Tween-80) turn out when `CNCCCCCc1cc(-c2ccc([N+](=O)[O-])cc2)on1` was run?
Its T/C is 95 % of control.

What about the T/C (dose: 200.0 mg/kg/injection, schedule: Q04DX003 (ip), vehicle: saline with Tween-80) of the same compound?
The T/C was 100 % of control.

Which T/C (dose: 50.0 mg/kg/injection, schedule: Q01DX009 (ip), vehicle: saline) does the source give for `Brc1ccc(/C=C/c2ccnnc2)cc1` here?
The T/C was 93 % of control.

And the T/C (dose: 100.0 mg/kg/injection, schedule: Q01DX009 (ip), vehicle: saline)?
Its T/C is 94 % of control.

And the T/C (dose: 200.0 mg/kg/injection, schedule: Q01DX009 (ip), vehicle: saline)?
Its T/C is 100 % of control.
